# Assay results: US8710058B2, “Polymorphic forms of 3-(1-{3-[5-(1-methyl-piperidin-4-ylmethoxy)-pyrimidin-2-yl]-benzyl}-6-oxo-1,6-dihydro-pyridazin-3-yl)-benzonitrile hydrochloride salt and processes of manufacturing thereof” (MERCK PATENT GmbH, priority 2009, dated 2014)
# Entries after “also recorded” stand apart in the source; their conditions may differ. Where two headings read alike, the source gives them in different places.
# What was measured:
# [1] = Thermodynamic solubility in 0.1 N HCl at 37° C.; conditions: 0.1 N HCl (pH 1.0); for Thermodynamic Solubility: 37° C.
# [2] = Kinetic solubility (after 60 minutes) in 0.1 N HCl; conditions: 0.1 N HCl (pH 1.0); for Kinetic Solubility (after 60 minutes): room temperature (approx. 20-25° C.)
# [3] = Competitive binary slurry conversion experiments (thermodynamic stability of hydrate forms); conditions: different solvents at 25° C. and 50° C.
# [4] = Solubility in Simulated Gastric Fluid (acc. to USP); conditions: 20 °C, thermodynamic from solid
# [5] = Water Vapor Sorption isotherm (25° C., SMS DVS); type: physicochemical; conditions: for Hygroscopicity classification acc. to Ph. Eur. criteria: up to 98% RH
# Excerpt: The crystalline modifications of the present invention can be characterized according to standard methods which can be found e.g. in Rolf Hilfiker, ‘Polymorphism in the Pharmaceutical Industry’, Wiley-VCH, Weinheim 2006, and references therein, e.g. X-Ray diffraction (XRD; chapter 6), IR and Raman spectroscopy (chapter 5), Differential Scanning calorimetry (DSC) and Thermogravimetric Analysis (TGA) (chapter 3), Water Vapour Sorption Studies (chapter 9), or which can be found e.g. in H. G. Brittain (editor), Polymorphism in Pharmaceutical Solids, Vol. 95, Marcel Dekker Inc., New York 1999 (chapter 6: all there mentioned techniques).
# FIG. 6 depicts the Water Vapour Sorption Isotherm (25° C.) (SMS DVS 1) of crystalline modification A1 of 3-(1-{3-[5-(1-methyl-piperidin-4-ylmethoxy)-pyrimidin-2-yl]-benzyl}-6-oxo-1,6-dihydro-pyridazin-3-yl)-benzonitrile hydrochloride anhydrate.
# FIG. 12 depicts the Water Vapour Sorption Isotherm (25° C.) (SMS DVS Intrinsic) of crystalline modification H1 of 3-(1-{3-[5-(1-methyl-piperidin-4-ylmethoxy)-pyrimidin-2-yl]-benzyl}-6-oxo-1,6-dihydro-pyridazin-3-yl)-benzonitrile hydrochloride hydrate.
# FIG. 18 depicts the Water Vapour Sorption Isotherm (25° C.) (SMS DVS Advantage) of crystalline modification NF3 of 3-(1-{3-[5-(1-methyl-piperidin-4-ylmethoxy)-pyrimidin-2-yl]-benzyl}-6-oxo-1,6-dihydro-pyridazin-3-yl)-benzonitrile hydrochloride hydrate.
# FIG. 25 depicts the Water Vapour Sorption Isotherm (25° C.) (SMS DVS Intrinsic) of crystalline modification H2 of 3-(1-{3-[5-(1-methyl-piperidin-4-ylmethoxy)-pyrimidin-2-yl]-benzyl}-6-oxo-1,6-dihydro-pyridazin-3-yl)-benzonitrile hydrochloride monohydrate.
# FIG. 33 depicts the Water Vapour Sorption Isotherm (25° C.) (SMS DVS Intrinsic) of crystalline modification NF6 of 3-(1-{3-[5-(1-methyl-piperidin-4-ylmethoxy)-pyrimidin-2-yl]-benzyl}-6-oxo-1,6-dihydro-pyridazin-3-yl)-benzonitrile hydrochloride anhydrate.
# FIG. 38 depicts the Water Vapour Sorption Isotherm (25° C.) (SMS DVS Intrinsic) of crystalline modification NF2 of 3-(1-{3-[5-(1-methyl-piperidin-4-ylmethoxy)-pyrimidin-2-yl]-benzyl}-6-oxo-1,6-dihydro-pyridazin-3-yl)-benzonitrile hydrochloride hydrate.
# [6] = pH 1
smiles,measurement,setting,value
"CN1CCC(COc2cnc(-c3cccc(Cn4nc(-c5cccc(C#N)c5)ccc4=O)c3)nc2)CC1.Cl.O [crystalline modification H2, 3-(1-{3-[5-(1-methyl-piperidin-4-ylmethoxy)-pyrimidin-2-yl]-benzyl}-6-oxo-1,6-dihydro-pyridazin-3-yl)-benzonitrile hydrochloride monohydrate]",Thermodynamic Solubility,[1]; hydrochloride monohydrate,approx. 28 μg/mL
same,Kinetic Solubility (after 60 minutes),[2]; hydrochloride monohydrate,approx. 0.3 μg/mL
same,Thermodynamic stability compared to other hydrate forms H1 and NF3,[3],thermodynamically stable hydrate form
same,solubility,[4],~20 µg/mL
same,Behaviour of hydrate water under dry RH conditions,[5]; hydrochloride monohydrate,no loss of hydrate water
same,Hygroscopicity classification acc. to Ph. Eur. criteria,[5]; hydrochloride monohydrate,non-hygroscopic
same,Water uptake,"[5]; up to 98% relative humidity (RH range 0-98%), hydrochloride monohydrate",small water uptake levels; also recorded: very small water uptake levels
"CN1CCC(COc2cnc(-c3cccc(Cn4nc(-c5cccc(C#N)c5)ccc4=O)c3)nc2)CC1.Cl [crystalline modification NF6, 3-(1-{3-[5-(1-methyl-piperidin-4-ylmethoxy)-pyrimidin-2-yl]-benzyl}-6-oxo-1,6-dihydro-pyridazin-3-yl)-benzonitrile hydrochloride anhydrate]",Thermodynamic Solubility,[6],> 200 µg/mL
same,Water uptake,"[5]; 2nd adsorption cycle, up to 70% RH",approx. 8 wt %
same,Water uptake in initial sorption stage,[5]; initial sorption stage at 40% relative humidity,pronounced water uptake
"CN1CCC(COc2cnc(-c3cccc(Cn4nc(-c5cccc(C#N)c5)ccc4=O)c3)nc2)CC1.Cl.O [crystalline modification NF3, 3-(1-{3-[5-(1-methyl-piperidin-4-ylmethoxy)-pyrimidin-2-yl]-benzyl}-6-oxo-1,6-dihydro-pyridazin-3-yl)-benzonitrile hydrochloride hydrate]",Thermodynamic Solubility,[1]; hydrochloride hydrate,approx. 70 μg/mL
same,Solubility compared to crystalline modification H2,[1]; thermodynamic solubility,significantly increased solubility
same,Water uptake level,[5]; at 98% relative humidity,approx. 9 wt %
same,Behaviour of hydrate water under dry RH conditions,[5]; hydrochloride hydrate,dehydration of hydrate water occurs
same,Hygroscopicity classification acc. to Ph. Eur. criteria,[5]; hydrochloride hydrate,slightly-hygroscopic
"CN1CCC(COc2cnc(-c3cccc(Cn4nc(-c5cccc(C#N)c5)ccc4=O)c3)nc2)CC1.Cl.O [crystalline modification H1, 3-(1-{3-[5-(1-methyl-piperidin-4-ylmethoxy)-pyrimidin-2-yl]-benzyl}-6-oxo-1,6-dihydro-pyridazin-3-yl)-benzonitrile hydrochloride hydrate]",Kinetic Solubility (after 60 minutes),[2]; hydrochloride hydrate,approx. 3 μg/mL
same,Solubility compared to crystalline modification H2,[2]; kinetic solubility,significantly increased solubility
same,Water uptake level,[5]; at 80% RH,> 15 wt %
same,Hygroscopic behaviour,[5]; relative humidity levels >70%,strongly hygroscopic
"CN1CCC(COc2cnc(-c3cccc(Cn4nc(-c5cccc(C#N)c5)ccc4=O)c3)nc2)CC1.Cl.O [crystalline modification NF2, 3-(1-{3-[5-(1-methyl-piperidin-4-ylmethoxy)-pyrimidin-2-yl]-benzyl}-6-oxo-1,6-dihydro-pyridazin-3-yl)-benzonitrile hydrochloride hydrate]",Weight loss in water vapor sorption,[5]; initial 40% RH sorption stage,~10 wt %
"CN1CCC(COc2cnc(-c3cccc(Cn4nc(-c5cccc(C#N)c5)ccc4=O)c3)nc2)CC1.Cl [crystalline modification A1, 3-(1-{3-[5-(1-methyl-piperidin-4-ylmethoxy)-pyrimidin-2-yl]-benzyl}-6-oxo-1,6-dihydro-pyridazin-3-yl)-benzonitrile hydrochloride anhydrate]",Hygroscopic behavior,[5]; at 98% RH,strongly hygroscopic
same,Water uptake level,[5]; at 98% relative humidity,> 15 wt %
same,Water uptake upon adsorption,[5]; range 0-90% relative humidity,very small water uptake levels
